# Experimental data as given in PubChem BioAssay (NCI).
#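 Cells were grown in 96-well plates and exposed to each compound for 48 hours at five concentrations; endpoints were interpolated linearly between bracketing concentrations, or set to the highest concentration if not reached. TGI is the concentration that stops growth completely.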
# Experiments:
# Test in all cases: NCI anticancer screen, dose series, 48 h
# [1] = system: 786-0 renal
# [2] = system: EKVX NSCLC
# [3] = system: UACC-62 melanoma
# [4] = system: MOLT-4 leukemia
# [5] = system: RPMI-8226 leukemia
# [6] = system: HCT-15 colon
# [7] = system: MALME-3M melanoma
# [8] = system: UACC-257 melanoma
# [9] = system: TK-10 renal
# [10] = system: OVCAR-4 ovarian
# [11] = system: CAKI-1 renal
# [12] = system: HOP-62 NSCLC
# [13] = system: LOX IMVI melanoma
# [14] = system: NCI-H226 lung
Structure (SMILES),TGI [1] [µM],TGI [2] [µM],TGI [3] [µM],TGI [4] [µM],TGI [5] [µM],TGI [6] [µM],TGI [7] [µM],TGI [8] [µM],TGI [9] [µM],TGI [10] [µM],TGI [11] [µM],TGI [12] [µM],TGI [13] [µM],TGI [14] [µM]
C/C=C\C(CC(=O)NCC(=O)c1c[nH]c2ccccc12)CC(=O)OC (stereo unspecified),> 100,> 100,> 100,> 100,> 100,> 100,> 100,> 100,> 100,> 100,> 100,> 100,–,–
Cc1cc(C)nc(NC(P(=O)(O)O)P(=O)(O)O)n1,> 100,> 100,> 100,–,–,> 100,> 100,> 100,> 100,–,> 100,> 100,> 100,> 100
CC(=O)OCCOCNC(=S)N/N=C/c1ccc([N+](=O)[O-])s1,> 100,> 100,> 100,> 100,> 100,> 100,> 100,66.7,> 100,> 100,–,> 100,> 100,> 100
NC1(CCNC(=O)c2ccccc2)CCN(C(=O)c2ccccc2)CC1,> 100,> 100,> 100,> 100,> 100,> 100,> 100,> 100,> 100,–,> 100,–,–,> 100
Cn1nnnc1SC(F)(F)c1nc2ccccc2o1,> 100,–,> 100,> 100,> 100,> 100,> 100,> 100,> 100,> 100,> 100,> 100,–,> 100
COc1cc(Nc2nc3cc(C(F)(F)F)ccc3nc2C(=O)O)cc(OC)c1OC,> 100,> 100,> 100,> 100,–,> 100,> 100,> 100,> 100,> 100,99,> 100,> 100,> 100
CC1CC(Nc2ccc(Br)cc2)N(C(=O)c2ccc(Br)cc2)O1 (stereo unspecified),> 10,> 10,–,> 10,> 10,> 10,> 10,> 10,> 10,> 10,> 10,> 10,–,> 10
C[n+]1c2ccccc2c(NC(CCCN=C(N)N)C(=O)O)c2ccccc21 (stereo unspecified),> 100,> 100,> 100,> 100,> 100,> 100,> 100,> 100,> 100,> 100,> 100,> 100,–,> 100
N/C(=N\S(=O)(=O)c1ccc(-c2ncccc2C(F)(F)F)s1)Nc1ccc(Cl)cc1,34.7,19,23.3,53.7,> 100,32.2,30.1,14,26.2,42.9,–,38.3,29.8,41.4
Cc1[nH]n(-c2nc(O)c(-c3ccccc3)c(=O)[nH]2)c(=O)c1CCO,> 100,> 100,> 100,> 100,> 100,> 100,> 100,> 100,> 100,> 100,> 100,–,–,> 100
CC1(C)OP(=O)(O)C=C1Sc1ccc([N+](=O)[O-])cc1[N+](=O)[O-],> 100,> 100,> 100,–,–,> 100,> 100,> 100,> 100,> 100,> 100,> 100,> 100,> 100
CCOC(=O)CCC1(CCC(=O)OCC)CCCCCCCCC(CCC(=O)OCC)(CCC(=O)OCC)C(=O)C1=O,> 100,> 100,> 100,–,–,> 100,> 100,> 100,> 100,> 100,> 100,> 100,> 100,> 100
CCOP(=O)(OCC)/C(C#N)=C/c1ccc(-c2cc(C(F)(F)F)cc(C(F)(F)F)c2)o1,25.5,35,–,21.8,23.5,20.7,–,30.6,35.5,–,–,29.1,15.9,32.6
COc1ccc(CNc2nc(NC3CCCCC3)nc(NC3CCCCC3)n2)cc1,70.3,> 100,50.9,> 100,–,5.5,64.2,> 100,> 100,> 100,> 100,> 100,4.44,15.5
CN1CC=C(c2c(N)nc(N)[nH]c2=O)CC1,> 100,> 100,> 100,> 100,> 100,> 100,> 100,> 100,–,> 100,> 100,> 100,–,> 100
S=C1NCCN1C(=S)Nc1ccccc1,> 100,> 100,> 100,> 100,–,> 100,> 100,> 100,> 100,> 100,> 100,> 100,> 100,> 100
COC(=O)N[C@H](C(=O)NC(OCc1ccccc1)C1COC(C)(C)O1)C(C)O[Si](C)(C)C(C)(C)C (stereo partly specified),> 100,> 100,–,> 100,> 100,> 100,> 100,> 100,> 100,> 100,> 100,> 100,–,–
O=c1[nH]nc(Cc2ccc(Cl)cc2)n1/N=C/c1cccs1,> 100,> 100,> 100,> 100,> 100,> 100,> 100,> 100,–,> 100,> 100,55.2,–,> 100
Cc1ccc2c(c1)CC1(Cc3cccc(C)c3C1=O)C2=O (stereo unspecified),> 100,> 100,> 100,> 100,> 100,> 100,> 100,> 100,> 100,> 100,–,> 100,> 10,> 100
COCCn1cnc2c(Cl)nc(Nc3ccccc3)nc21,> 100,51.9,85.1,60.5,> 100,69.1,–,> 100,> 100,46.7,–,> 100,33.2,> 100
C=C1CC[C@H]2C(=O)OC(c3ccoc3)C[C@]2(C)C/C=C\C=C/1C(=O)OC (stereo partly specified),> 25,> 25,> 25,–,–,> 25,> 25,> 25,> 25,> 25,> 25,> 25,> 25,> 25
O=P1(Cc2ccccc2)N(Cc2ccccc2)[C@@H]2CCCC[C@H]2N1Cc1ccccc1,27.2,22.4,20.6,8.44,–,23.8,32.4,20.1,26.7,15.2,23.7,32.2,26.1,4.63
O=C1CC(=O)NC(=NN2C(=O)/C(=C/c3ccc(Cl)c(Cl)c3)N=C2c2ccccc2)N1,> 100,–,32.6,50.8,47,> 100,> 100,> 100,> 100,> 100,> 100,79.6,–,> 100
CCOC(=O)C(NC(=O)c1ccccc1)(N1CCN(c2cc3c(cc2F)c(=O)c(C(=O)O)cn3C2CC2)CC1)C(F)(F)F (stereo unspecified),> 100,67.1,47.6,32.8,54.1,–,39.3,–,–,63.4,50.2,> 100,–,45.2
COc1cccc(-c2nc(-c3cnccn3)n(C/C=C/c3ccccc3)n2)c1,> 10,> 10,> 10,> 10,–,> 10,> 10,> 10,> 10,> 10,–,–,> 10,> 10
O=Cc1ccc(-c2ccc(-c3ccc(CO)s3)o2)s1,> 48.9,> 69.1,6.03,> 39,–,> 100,> 66.8,0.506,0.627,> 100,–,> 84.3,16.2,0.291
CC(NC(=O)Cc1ccccc1)NC(=O)C(C)C(=O)NCc1ccccc1 (stereo unspecified),> 100,> 100,> 100,> 100,> 100,> 100,> 100,> 100,> 100,> 100,> 100,–,–,77.8
CCCC(=O)[O-].CCCC(=O)[O-].NCCN.NCCN.[Co+3].[O-][Cl+3]([O-])([O-])[O-],> 100,> 100,> 100,> 100,> 100,> 100,> 100,> 100,> 100,> 100,–,> 100,> 100,–
